Test results from EP4111863A1, “PHOSPHORUS USE EFFICIENCY ENHANCERS AS PLANT GROWTH PROMOTORS” (EuroChem Antwerpen, priority 2021, dated 2023).

system: SPX1; assay: Chemical activity assessment: SPX1 phosphate starvation biomarker, pSPX1::GUS reporter line, GUS stained area; format: in vivo, Arabidopsis thaliana; conditions: Table 3; 50 µM compound, low phosphate modMS liquid medium, 7 days after germination; low phosphate control average of the same plate
Protocol: All Arabidopsis plant experiments were performed using the Arabidopsis thaliana Columbia-0 background. The Arabidopsis pSPX1::GUS line is described in the […] 2008, 54: 965-975. For rice, the cultivar Nipponbare was used. For maize, the cultivars DKC 2931 and B104 were used for regular pot experiments and sand-based pot experiments, respectively. For soybean, the cultivar Primus was used. […] The medium was solidified due to the addition of 0,6% Gelrite, unless stated otherwise. In case of vertical plates (root length and root hair measurements), the medium was supplied with 0.5% of sucrose and 1 µM (low phosphate, 1 µM KH2PO4, 9.9 mM KCI), 10 µM (low phosphate 10 µM KH2PO4, 9.9 mM KCI) or 1.25 mM KH2PO4 (high phosphate). Arabidopsis seeds were stratified for 2 days at 4 °C before germination. Seedlings were germinated in climate-controlled growth chambers at 22 °C under continuous light (100 µmol m^-2 s^-1). Husked rice seeds were germinated on wetted Whatman paper for 2 days at 37 °C and then transferred to Sterivent boxes or square Petri dishes with solid medium. Maize and soybean seeds were wetted 24 hours at room temperature prior to sowing in pots.
For the chemical activity assessment 3 to 8 seeds per well of Arabidopsis pSPX1::GUS line were sown in 96-well plates containing 150 µl of low phosphate modMS liquid medium containing 1% of sucrose. Compounds were added in 50 µM concentration, starting from a 5 mM stock of compounds solved in DMSO. Different chemical substances were separately added to different wells. Per plate, 16 control wells were used, 8 containing only the low phosphate medium and 1% DMSO, and 8 containing high phosphate medium and 1% DMSO. 7 days after germination, plates were scanned using a flatbed scanner (EPSON Expression 11000XL) and analyzed for leaf size. After scanning, the growth medium was replaced by GUS staining solution (see Plant Mol. Biol. Rep. 1994, 12: 37-42 for details) and incubated for 1.5 hours at 37 °C. The plates were scanned a second time and analyzed for GUS signal area. Measurements of both leaf area and GUS signal area were conducted by filtering out and measure the green and blue signal, respectively using ImageJ software. If the green leaf area was 50% or less than the control, samples were omitted. Additionally, all results were visually screened for leaf size and GUS signal.

Row | Structure (SMILES) | GUS (SPX1) stained area normalized to the number of seeds (pixels)
1 | O=C(NC1COc2ccccc21)N1CCOC(c2ccc(Cl)cc2)C1 (stereo not drawn) | 8
2 | CC1CN(S(=O)(=O)N(CC2CCOC2)C2CC2)CC(C)O1 (stereo not drawn) | 60
3 | CCc1nnsc1C(=O)NCc1ccccc1N1CCOCC1 | 13
4 | Cc1cc(C)n(CC2CN(CC(=O)N(C)c3nccs3)CCO2)n1 (stereo not drawn) | 15
5 | NC(=O)C1CN(C(=O)C2(c3cccc(C(F)(F)F)c3)CC2)CCO1 (stereo not drawn) | 349
6 | O=C(NC1CCSc2ccc(Cl)cc21)c1ccc(N2CCOCC2)c([N+](=O)[O-])c1 (stereo not drawn) | 27
7 | CCc1cc(N2CC(C)OCC2c2ccccc2)nc(-c2ccccn2)n1 (stereo not drawn) | 5
8 | O=C(CCc1ccccc1)Nc1c(C(=O)N2CCOCC2)oc2ccccc12 | 28
9 | O=C(COn1nnc2ccc(Cl)cc21)Nc1cc(S(=O)(=O)N2CCOCC2)ccc1Cl | 7
10 | c1ccc2sc(SN3CCOCC3)nc2c1 | 1
11 | O=C(C1CN(C(=O)C(c2ccccc2)c2ccccc2)c2ccccc2O1)N1CCOCC1 (stereo not drawn) | 30
12 | Fc1cc(C2CNCCO2)c(Cl)cc1Cl (stereo not drawn) | 27
13 | CC(C)(C)c1n[nH]c(C2CN(C(=O)c3ccc[nH]3)CCO2)n1 (stereo not drawn) | 5
14 | Brc1ccc(CN2CCOC(Cn3cccn3)C2)s1 (stereo not drawn) | 10
15 | O=C(Nc1ccc(F)cn1)N1CCOC(c2nccs2)C1 (stereo not drawn) | 24
16 | O=C1NC(c2cc3ccccc3nc2N2CCOCC2)Nc2ccccc21 (stereo not drawn) | 14
17 | Clc1cnccc1N1CCC(OCCN2CCOCC2)CC1 | 491
18 | C(=C\c1cc2ccccc2nc1N1CCOCC1)/c1nc2ccccc2s1 | 0
19 | C#CCNC(=O)CN1CCOC(CC)C1 (stereo not drawn) | 66
20 | CC1CN(c2ccc([N+](=O)[O-])nc2)CC(c2ccsc2)O1 (stereo not drawn) | 55
21 | Cc1nnc(NC(=O)N2CC(C)OC(c3ccsc3)C2)s1 (stereo not drawn) | 20
22 | CC(C)Cn1c(SCC(=O)c2ccc(Br)s2)nnc1N1CCOCC1 | 9
23 | CC(C)(C)CC(C)(C)NCc1cnc(N2CCOCC2)nc1 | 5
24 | CCn1c(Sc2nnnn2-c2ccccc2)nc2cc(S(=O)(=O)N3CCOCC3)ccc21 | 14
25 | CC(NC(=O)N1CCOC(CO)C1)c1ccc(Br)cc1 (stereo not drawn) | 129

Row | Structure (SMILES) | GUS (SPX1) stained area normalized to the number of seeds (pixels)
26 | C1CCC(Sc2nnc(N3CCOCC3)s2)C1 | 35
27 | CC(=O)Nc1ccc(Sc2cc(C(=O)N3CCOCC3)c3ccccc3n2)cc1 | 18
28 | c1ccc(OCCNCCN2CCOCC2)cc1 | 23
29 | Cc1csc(C2CN(Cc3ncc(C(C)(C)C)o3)CCO2)n1 (stereo not drawn) | 5
30 | O=C1Nc2ccccc2SC1Nc1ccc(F)c(S(=O)(=O)N2CCOCC2)c1 (stereo not drawn) | 3
31 | Cc1cc(C)n(CC2CN(c3ncnc4ccsc34)CCO2)n1 (stereo not drawn) | 44
32 | CN1CCOC(C(=O)N2CCN(CC3CC3)c3ccccc32)C1 (stereo not drawn) | 64
33 | COc1ccc(OC)c2c1CN(c1nc(CN3CCOCC3)nc3sc(C)c(C)c13)CC2O (stereo not drawn) | 42
34 | CN1CCOC(C(=O)NC(c2c(F)cccc2F)C(F)(F)F)C1 (stereo not drawn) | 5
35 | c1ccc2sc(CN3CCOC(c4nccs4)C3)nc2c1 (stereo not drawn) | 49
36 | CC1CN(CC(=O)Nc2ccccc2Cc2ccccc2)CC(C)O1 (stereo not drawn) | 0
37 | O=C(COc1ccc(Cl)cc1)Nc1ccccc1C(=O)N1CCOCC1 | 20
38 | CC(c1nc(C(C)(C)C)no1)N1CCOC(c2ccccc2)C1 (stereo not drawn) | 9
39 | Cc1cc(C)c(C)c(OC(=O)N2CCOCC2)c1 | 17
40 | CCC1COCCN1C(=O)Nc1nnc(C(F)(F)F)s1 (stereo not drawn) | 21
41 | Cc1ccc(C(CN2CCOCC2)NC(=O)c2cc(-c3ccccc3)[nH]n2)cc1 (stereo not drawn) | 0
42 | CC1CN(C(C)(C)CNC(=O)C2CCCN2C2CCN(CC(F)(F)F)CC2)CC(C)O1 (stereo not drawn) | 7
43 | CN(CC1COc2ccccc2O1)c1ccc(S(=O)(=O)N2CCOCC2)cn1 (stereo not drawn) | 0
44 | CC1CN(C(=O)c2cnn(C)c2C(F)(F)F)CC(C)O1 (stereo not drawn) | 19
45 | O=C(COc1cccc(F)c1)Nc1sc2c(c1C(=O)N1CCOCC1)CCCC2 | 10
46 | CCc1nnc(NC(=O)N2CCOCC2CC(C)C)s1 (stereo not drawn) | 16
47 | Cc1ccc(C2COCCN2C(=O)Nc2nnc(C(F)F)s2)o1 (stereo not drawn) | 26
48 | CCC(CC)C(CNC(=O)Nc1ccccc1F)N1CCOCC1 (stereo not drawn) | 37
49 | CC(CNC(=O)N1CCCCC1c1cccn1C)CN1CCOCC1 (stereo not drawn) | 65
50 | CC(C)CCNC(=O)c1cc(S(=O)(=O)N2CCOCC2)cn1C | 1

Row | Structure (SMILES) | GUS (SPX1) stained area normalized to the number of seeds (pixels)
51 | CC1CN(C(=O)Cn2nc(-c3cccs3)oc2=O)CCO1 (stereo not drawn) | 0
52 | Cn1c(Cl)cnc1CN1CCOC(c2ccc(Cl)cc2)C1 (stereo not drawn) | 17
53 | O=C(c1cccs1)C(C(c1ccc(Cl)cc1)N1CCOCC1)N1CCOCC1 (stereo not drawn) | 3
54 | CCC1CN(Cn2nc3ccccn3c2=S)CCO1 (stereo not drawn) | 3
55 | NC(=O)C1COCCN1c1cnc2cc(Cl)c(Cl)cc2n1 (stereo not drawn) | 3
56 | CC1(C)CN(C(=O)c2csc(-c3cccs3)n2)CCO1 | 6
57 | CN1CCOC2CN(Cc3cc(O)ccc3Br)CC21 (stereo not drawn) | 12
58 | CC1COCCN1C(=O)CCc1nc(-c2cccs2)no1 (stereo not drawn) | 17
59 | CCN(CC)S(=O)(=O)c1ccc(N2CCOCC2)c(NC(=O)c2ccccc2OC)c1 | 7
60 | O=C(c1ccc(-c2cc(Cl)ccc2Cl)o1)N1CCOCC1 | 16
61 | O=S(=O)(c1ccc(OCCN(C2CC2)C2CCCc3ccccc32)cc1)N1CCOCC1 (stereo not drawn) | 3
62 | O=C(c1cc(-c2ccccc2)nc2c1cnn2Cc1cccc(F)c1)N1CCOCC1 | 14
63 | COc1cccc(-c2nnn(-c3nc(CN4CCOCC4)nc4sc5c(c34)CCCC5)n2)c1 | 20
64 | O=S(=O)(c1ccc(Sc2nnc(-c3ccccc3)c3ccccc23)nc1)N1CCOCC1 | 31
65 | CC1CN(C(=O)c2cc(Cl)c(Cl)n2C)CCO1 (stereo not drawn) | 14
66 | CCC1CN(C(=O)CCc2nc(-c3cccs3)no2)CCO1 (stereo not drawn) | 23
67 | CC1CN(C(=O)c2nn(-c3ccccc3)c(=O)c3ccccc23)CC(C)O1 (stereo not drawn) | 10
68 | O=C(c1csc(-c2cccs2)n1)N1CCOC2CCCCC21 (stereo not drawn) | 2
69 | CC1CN(Cn2nc(-c3cccs3)nc2S)C(C)CO1 (stereo not drawn) | 9
70 | CCC1CN(Cc2cc(=O)n3cc(Cl)ccc3n2)CCO1 (stereo not drawn) | 47
71 | FC(F)(F)Cn1ccnc1CN1CCOC2(CCCC2)C1 | 38
72 | NC(=O)C1CN(c2ncc(Br)cn2)CCO1 (stereo not drawn) | 17
73 | Brc1cc(CN2CCOC(Cn3cccn3)C2)cs1 (stereo not drawn) | 21
74 | CCCn1nc(C(=O)N2CC(C)OCC2C)ccc1=O (stereo not drawn) | 2
75 | CC1CN(C(=O)CCc2nc(-c3ccsc3)no2)C(C)CO1 (stereo not drawn) | 1
